Laboratory results taken from PubChem BioAssay (NCI).
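Five concentrations, 48 hours, 96-well plates. At the GI50, growth is halved. TGI is the concentration that stops growth completely.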

Columns and labels:
Assay in all cases: NCI-60 cell line screen, 48 h
[1] = test system: IGROV1 ovarian
[2] = test system: NCI-H226 lung
[3] = test system: EKVX NSCLC
[4] = test system: RXF 393 renal
[5] = test system: OVCAR-5 ovarian
[6] = test system: SK-OV-3 ovarian
[7] = test system: CAKI-1 renal
[8] = test system: SNB-19 CNS
[9] = test system: UACC-62 melanoma
[10] = test system: LOX IMVI melanoma

| Compound | TGI [1] | TGI [2] | TGI [3] | TGI [4] | TGI [5] | TGI [6] | TGI [7] | TGI [8] | TGI [9] | TGI [10] | GI50 [1] | GI50 [2] | GI50 [3] | GI50 [4] | GI50 [5] | GI50 [6] | GI50 [7] | GI50 [8] | GI50 [9] | GI50 [10] |
| --- | --- | --- | --- | --- | --- | --- | --- | --- | --- | --- | --- | --- | --- | --- | --- | --- | --- | --- | --- | --- |
| C/C(=N/NC(=O)c1ccccc1S(N)(=O)=O)C(CN1CCCCC1)C(C1=C(O)C2C=CC=CC2OC1=O)c1ccccc1 (centres undefined) | > 100 µM | > 100 µM | > 100 µM | 68.4 µM | > 100 µM | > 100 µM | > 100 µM | > 100 µM | > 100 µM | > 100 µM |  |  |  |  |  |  |  |  |  |  |
| N#CC1=C(N)Oc2c(sc3c(Br)cccc23)C1c1ccc([N+](=O)[O-])cc1 (centres undefined) | 18.4 µM | 15.6 µM | 19.4 µM | 2.23 µM | 16.4 µM | 15.1 µM | 16.9 µM | 13 µM | 12.3 µM | 4.31 µM | 0.33 µM | 0.368 µM | 0.462 µM | 0.036 µM | 1.4 µM | 0.128 µM | 0.0837 µM | 0.139 µM | 0.0634 µM | 0.127 µM |
| Cc1cc(N(CCC#N)CCC#N)ccc1/C=C(\NC(=O)/C=C/c1ccccc1)C(=O)N=[N+]=[N-] | > 100 µM | > 100 µM | > 100 µM | 98.5 µM | > 100 µM | > 100 µM | > 100 µM | > 100 µM | > 100 µM | > 100 µM |  |  |  |  |  |  |  |  |  |  |
| COc1cc2cc(NCc3cccc(Cl)c3)nc(C)c2cc1OC | 13.9 µM | 26.3 µM | 36.5 µM | 16.3 µM | 25.4 µM | 33.5 µM | 24.4 µM | 31.8 µM | 5.41 µM | 4.36 µM | 1.32 µM | 4.35 µM | 3.52 µM | 3.57 µM | 1.5 µM | 4.94 µM | 2.7 µM | 2.12 µM | 0.498 µM | 0.442 µM |
| NC(N)NCCCc1cn2c(n1)C1CCCN1C(=O)C2Cc1ccccc1 (centres undefined) | > 100 µM | > 100 µM | > 100 µM | > 100 µM | > 100 µM | > 100 µM | > 100 µM | > 100 µM | > 100 µM | > 100 µM |  |  |  |  |  |  |  |  |  |  |
| O=c1[nH]c2ccccc2n1C1CCNCC1 | > 100 µM | > 100 µM | > 100 µM | > 100 µM | > 100 µM | > 100 µM | > 100 µM | > 100 µM | > 100 µM | > 100 µM | > 100 µM | > 100 µM | > 100 µM | > 100 µM | > 100 µM | > 100 µM | > 100 µM | > 100 µM | > 100 µM | > 100 µM |
| COc1cc2c(c3oc(-c4ccc(O)cc4)c(O)c(=O)c13)CCC(C)(C)O2 | 0.526 µM | 2.55 µM |  | 0.176 µM | 0.622 µM | 5.4 µM | 1.17 µM | > 23.4 µM | 0.616 µM | 0.328 µM | 0.158 µM | 0.536 µM | 0.308 µM | 0.0379 µM | 0.229 µM | 0.401 µM | 0.245 µM | 0.16 µM | 0.199 µM | 0.104 µM |
| COc1cccc2c1nc(C(F)F)n2-c1nc(-c2ccc(NS(=O)(=O)CCN(C)C)cc2)nc(N2CCOCC2)n1 | 0.154 µM | 6.43 µM | 1.7 µM | 0.58 µM | 17.3 µM | 0.214 µM | 4.69 µM | > 100 µM | 1.45 µM | 2.13 µM | 0.0261 µM | 0.191 µM | 0.0712 µM | 0.105 µM | 0.0909 µM | 0.0396 µM | 0.168 µM | 1.28 µM | 0.134 µM | 0.176 µM |
| O=P1(NCCCl)OCCCN1CCCl (centres undefined) | 457 µM | 425 µM | 447 µM | 445 µM | 453 µM | 424 µM | 341 µM | 418 µM | 419 µM | 402 µM |  |  |  |  |  |  |  |  |  |  |
| CC(C)(CN1CCCCC1)C(=O)/C=C/c1ccccc1 | 86.6 µM | 69.8 µM | 35.2 µM | 24.7 µM | 40.4 µM | 57.3 µM | 48 µM | 34.6 µM | 53.2 µM | 41.3 µM |  |  |  |  |  |  |  |  |  |  |
